Entries after “also recorded” stand apart in the source; their conditions may differ.

Experiment [1] deals with Dickeya chrysanthemi. Description: Pathogen inoculation experiment on potato (potato soft rot control effect). The class given is in vivo. The note with it: potato treated at the same time with D.c. suspension 2×10^6 cfu/ml and 400 ppm MPP (FIG. 6). How it is done:
In order to test whether the culture filtrate of the Aspergillus terreus ANU-301 strain of the present disclosure has a control effect on potato soft rot caused by Dickeya chrysanthemi bacteria, a pathogen inoculation experiment was performed (FIG. 3).
In potato plants inoculated with Dickeya chrysanthemi bacteria (D.c.), browning progressed at the inoculation site, and symptoms of soft rot disease were confirmed.
A pathogen inoculation experiment was conducted to test whether the MPP component present in the culture filtrate of the Aspergillus terreus ANU-301 strain of the present disclosure is effective in controlling potato soft rot disease caused by Dickeya chrysanthemi bacteria (FIG. 6). In potato plants inoculated with Dickeya chrysanthemi bacteria (D.c.), browning progressed at the inoculation site, and symptoms of soft rot disease were confirmed. […] Hereinafter, the present disclosure will be described in more detail with reference to Examples. However, these examples are presented merely to describe the present disclosure in more detail, and the scope of the present disclosure is not limited to these examples.
In order to evaluate the effect of the ANU-301 strain culture filtrate on potato soft rot inhibition, the culture filtrate was prepared as follows.
The ANU-301 strain was inoculated into sterilized potato dextrose broth (PDB) and cultured at 25° C. for 5 days. […]

Experiment [2] concerns Dickeya chrysanthemi. The experiment is described as follows: Disc diffusion assay on NA medium. The experiment is classed as cell-based. The settings on record: paper filter disk wetted with 400 ppm of MPP, NA medium (FIG. 5). As to the method:
To this end, the NA medium (Nutrient agar medium: peptone 5 g, beef extract 1.5 g, yeast extract 1.5 g, NaCl 5 g & agar 15 g/1 L) was smeared with Dickeya chrysanthemi bacteria. After placing a paper filter disk in the center of the medium, 10 μL of culture extract and 400 ppm of MPP were wetted therein, respectively, and the result of culturing the bacteria was observed.

As to `CC(C)(c1ccccc1)c1ccc(O)c(C(C)(C)c2ccccc2)c1` [MPP, 2,4-bis(1-methyl-1-phenylethyl)-phenol], in the experiment on Dickeya chrysanthemi [1], the “soft rot symptoms (disease control effect)” value is reported as “soft rot symptoms were suppressed; also recorded: showed a disease inhibitory effect”. The “bacterial growth / clear zone around the disk” value in the experiment on Dickeya chrysanthemi [2] is on record as “a clear zone was formed”.

For the origin of these results see US12402629B2, “Aspergillus terreus strain and composition for controlling bacterial plant diseases using strain or culture filtrate thereof” (Andong National University Industry-Academic Cooperation …, priority 2022, dated 2025).
